Measurements reported in BigSolDB 2.1.

CCCCCCCC(=O)NCC(=O)O
Details	solubility (mole fraction)
in 2-butanone, 273.15 K	0.0123
in 2-butanone, 278.15 K	0.0153
in 2-butanone, 283.15 K	0.0199
in 2-butanone, 288.35 K	0.0266
in 2-butanone, 293.05 K	0.0304
in 2-butanone, 298.15 K	0.0379
in 2-butanone, 303.15 K	0.0457
in 2-butanone, 308.05 K	0.0561
in 2-butanone, 313.25 K	0.0667
in 2-butanone, 317.65 K	0.0806
in 2-butanone, 323.15 K	0.0951
in 2-pentanone, 273.15 K	0.00491
in 2-pentanone, 278.15 K	0.00666
in 2-pentanone, 283.15 K	0.00984
in 2-pentanone, 288.35 K	0.0148
in 2-pentanone, 293.05 K	0.0178
in 2-pentanone, 298.15 K	0.0244
in 2-pentanone, 303.15 K	0.032
in 2-pentanone, 308.05 K	0.0431
in 2-pentanone, 313.25 K	0.0552
in 2-pentanone, 317.65 K	0.0723
in 2-pentanone, 323.15 K	0.0915
in acetone, 273.15 K	0.0146
in acetone, 278.15 K	0.0189
in acetone, 283.15 K	0.0261
in acetone, 288.35 K	0.0369
in acetone, 293.05 K	0.0432
in acetone, 298.15 K	0.0562
in acetone, 303.15 K	0.0706
in acetone, 308.05 K	0.0905
in acetone, 313.25 K	0.111
in acetone, 317.65 K	0.14
in acetone, 323.15 K	0.171
in cyclohexanone, 273.15 K	0.0112
in cyclohexanone, 278.15 K	0.0149
in cyclohexanone, 283.15 K	0.0214
in cyclohexanone, 288.35 K	0.0315
in cyclohexanone, 293.05 K	0.0378
in cyclohexanone, 298.15 K	0.0508
in cyclohexanone, 303.15 K	0.0656
in cyclohexanone, 308.05 K	0.0866
in cyclohexanone, 313.25 K	0.11
in cyclohexanone, 317.65 K	0.141
in cyclohexanone, 323.15 K	0.177
in cyclopentanone, 273.15 K	0.0144
in cyclopentanone, 278.15 K	0.019
in cyclopentanone, 283.15 K	0.0269
in cyclopentanone, 288.35 K	0.039
in cyclopentanone, 293.05 K	0.0464
in cyclopentanone, 298.15 K	0.0616
in cyclopentanone, 303.15 K	0.0789
in cyclopentanone, 308.05 K	0.103
in cyclopentanone, 313.25 K	0.129
in cyclopentanone, 317.65 K	0.164
in cyclopentanone, 323.15 K	0.203
in ethanol, 273.15 K	0.0116
in ethanol, 278.15 K	0.0176
in ethanol, 283.15 K	0.0266
in ethanol, 288.35 K	0.0401
in ethanol, 293.05 K	0.0575
in ethanol, 298.15 K	0.0833
in ethanol, 303.15 K	0.119
in ethanol, 308.05 K	0.168
in ethanol, 313.25 K	0.237
in ethanol, 317.65 K	0.314
in ethanol, 323.15 K	0.447
in ethyl acetate, 273.15 K	0.00218
in ethyl acetate, 278.15 K	0.00301
in ethyl acetate, 283.15 K	0.00455
in ethyl acetate, 288.35 K	0.00705
in ethyl acetate, 293.05 K	0.00866
in ethyl acetate, 298.15 K	0.0121
in ethyl acetate, 303.15 K	0.0162
in ethyl acetate, 308.05 K	0.0223
in ethyl acetate, 313.25 K	0.029
in ethyl acetate, 317.65 K	0.0389
in ethyl acetate, 323.15 K	0.0502
in ethyl formate, 273.15 K	0.0016
in ethyl formate, 278.15 K	0.00226
in ethyl formate, 283.15 K	0.00348
in ethyl formate, 288.35 K	0.00555
in ethyl formate, 293.05 K	0.00688
in ethyl formate, 298.15 K	0.00981
in ethyl formate, 303.15 K	0.0133
in ethyl formate, 308.05 K	0.0186
in ethyl formate, 313.25 K	0.0247
in ethyl formate, 317.65 K	0.0336
in ethyl formate, 323.15 K	0.0439
in isobutanol, 273.15 K	0.0204
in isobutanol, 278.15 K	0.0259
in isobutanol, 283.15 K	0.0327
in isobutanol, 288.35 K	0.0412
in isobutanol, 293.05 K	0.0503
in isobutanol, 298.15 K	0.0622
in isobutanol, 303.15 K	0.0762
in isobutanol, 308.05 K	0.0919
in isobutanol, 313.25 K	0.112
in isobutanol, 317.65 K	0.131
in isobutanol, 323.15 K	0.159
in isopentanol, 273.15 K	0.0276
in isopentanol, 278.15 K	0.0347
in isopentanol, 283.15 K	0.0434
in isopentanol, 288.35 K	0.0543
in isopentanol, 293.05 K	0.0657
in isopentanol, 298.15 K	0.0805
in isopentanol, 303.15 K	0.0978
in isopentanol, 308.05 K	0.117
in isopentanol, 313.25 K	0.142
in isopentanol, 317.65 K	0.166
in isopentanol, 323.15 K	0.2
in isopropanol, 273.15 K	0.0153
in isopropanol, 278.15 K	0.0193
in isopropanol, 283.15 K	0.0239
in isopropanol, 288.35 K	0.0298
in isopropanol, 293.05 K	0.0362
in isopropanol, 298.15 K	0.0441
in isopropanol, 303.15 K	0.0533
in isopropanol, 308.05 K	0.064
in isopropanol, 313.25 K	0.0769
in isopropanol, 317.65 K	0.0895
in isopropanol, 323.15 K	0.108
in methanol, 273.15 K	0.0347
in methanol, 278.15 K	0.0478
in methanol, 283.15 K	0.0653
in methanol, 288.35 K	0.0891
in methanol, 293.05 K	0.117
in methanol, 298.15 K	0.156
in methanol, 303.15 K	0.204
in methanol, 308.05 K	0.263
in methanol, 313.25 K	0.343
in methanol, 317.65 K	0.425
in methanol, 323.15 K	0.555
in methyl acetate, 273.15 K	0.00203
in methyl acetate, 278.15 K	0.00288
in methyl acetate, 283.15 K	0.00448
in methyl acetate, 288.35 K	0.00718
in methyl acetate, 293.05 K	0.00895
in methyl acetate, 298.15 K	0.0128
in methyl acetate, 303.15 K	0.0174
in methyl acetate, 308.05 K	0.0245
in methyl acetate, 313.25 K	0.0327
in methyl acetate, 317.65 K	0.0444
in methyl acetate, 323.15 K	0.0586
in n-butanol, 273.15 K	0.0228
in n-butanol, 278.15 K	0.0313
in n-butanol, 283.15 K	0.0425
in n-butanol, 288.35 K	0.0577
in n-butanol, 293.05 K	0.0755
in n-butanol, 298.15 K	0.0993
in n-butanol, 303.15 K	0.13
in n-butanol, 308.05 K	0.167
in n-butanol, 313.25 K	0.217
in n-butanol, 317.65 K	0.268
in n-butanol, 323.15 K	0.347
in n-pentanol, 273.15 K	0.0226
in n-pentanol, 278.15 K	0.0308
in n-pentanol, 283.15 K	0.0413
in n-pentanol, 288.35 K	0.0559
in n-pentanol, 293.05 K	0.0724
in n-pentanol, 298.15 K	0.095
in n-pentanol, 303.15 K	0.123
in n-pentanol, 308.05 K	0.157
in n-pentanol, 313.25 K	0.202
in n-pentanol, 317.65 K	0.249
in n-pentanol, 323.15 K	0.32
in n-propanol, 273.15 K	0.0174
in n-propanol, 278.15 K	0.0254
in n-propanol, 283.15 K	0.0363
in n-propanol, 288.35 K	0.0522
in n-propanol, 293.05 K	0.0715
in n-propanol, 298.15 K	0.1
in n-propanol, 303.15 K	0.137
in n-propanol, 308.05 K	0.185
in n-propanol, 313.25 K	0.251
in n-propanol, 317.65 K	0.323
in n-propanol, 323.15 K	0.439
